The conditions of data set [1]: background statement; cited from earlier work.
For data set [2], the system named is IL-6 and IL-1β mRNA expression in LPS-activated RAW 264.7 cells. Nature of the data set: Pro-inflammatory cytokine mRNA expression (RT-PCR) in LPS-stimulated RAW 264.7 macrophages. Format: cell-based, murine. On the procedure: RAW246.7 cells were exposed to LPS either alone or in combination with either pooled human milk oligosaccharides (HMOs), or 3′-sialyllactose (3′SL) or 2′-fucosyllactose (2′FL). After 6 hours, IL-6 (A) and IL-1β (B) mRNA levels were measured by RT-PCR and are plotted as mean±standard deviation (n=8) relative the respective mRNA levels in cells that were exposed to LPS alone (**p<0.01; ***p<0.001). HMOs are a group of more than 150 different structurally distinct oligosaccharides and their composition follows a basic structural blueprint (C), containing five monosaccharide building blocks: glucose (dark gray circle), galactose (light gray circle), N-acetylglucosamine (dark gray square), fucose (gray triangle) and sialic acid (gray diamond). 3′SL contains lactose with sialic acid at the terminal end; 2′FL contains lactose with fucose at the terminal end.
Oligosaccharides Reduce Pro-Inflammatory Cytokine mRNA Expression in Stimulated Macrophages. HMOs were first isolated and purified from pooled human donor milk (pHMO) by using polymixin B affinity chromatography to remove any lipopolysaccharide (LPS) contamination. RAW 264.7 cells, a murine macrophage cell line, were then incubated with LPS (10 ng/mL) and pHMO (500 ηg/mL) for 6 hours. RT-PCR was used to measure cytokine mRNA expression.
A multi-dimensional chromatography approach was used that separates pHMO first by charge and then by size. […] To exclude that the observed effect was due to impurities or contaminations from the isolation process, the results were confirmed with synthetized and commercially available 3′SL. […] Other oligosaccharides like 2′-fucosyllactose (2′FL), where the terminal monosaccharide is fucose instead of sialic acid (see FIG. 1C), had no effect, emphasizing that the anti-inflammatory effect of 3′SL in macrophages is specific to the structure of 3′SL.

The test system of data set [3] is primary mouse cells (bone marrow derived macrophages). Briefly: Pro-inflammatory cytokine expression in primary mouse bone marrow derived macrophages. Format: cell-based. From the text: (§1) Accordingly, the results with 3′SL translate to primary cells as well as to human macrophages.
In data set [4] the test system is human THP-1 monocytic cell line. Briefly: Pro-inflammatory cytokine expression in human THP-1 monocytic cell line. The data set is classed as cell-based.
Description: as §1

The test system of data set [5] is collagen antibody-induced arthritis (CAIA). Nature of the data set: Collagen antibody-induced arthritis (CAIA) mouse model. Format: in vivo, female BALB/c mice. As to the method: Oral gavage of 3′SL (20 mg thrice daily, beginning at the time of LPS trigger) reduces baseline-corrected ankle swelling (A) and clinical pathology score 28 (B) over the course of the study. […] (*p<0.05, **p<0.01, ***p<0.001).
Rheumatoid Arthritis In vivo Experimental Design. Macrophages and the pro-inflammatory cytokines IL-6 and IL-1β are known to perform a major role in the development and progression of joint destruction in animal models and patients with RA. […] Next, it was asked whether or not the in vitro results translate to an in vivo model. 3′SL efficacy in a collagen antibody-induced arthritis (CAIA) model was tested in mice. In the CAIA model, arthritis is induced by systemic administration of a cocktail of monoclonal antibodies that target various regions of collagen type II, which is one of the major constituents of articular cartilage matrix proteins, followed by the administration of endotoxin (LPS) on day 3. The high uptake rate in the CAIA model and the capacity to synchronize the development of arthritis from the time of antibody injection, makes this a relatively straightforward model that is used to address questions of pathogenic mechanisms and to screen candidate therapeutic agents.
8-week old female BALB/c mice were injected with 1.5 mg of Arthrogen-CIA monoclonal antibody cocktail (Chondrex, Inc.). Three days later, the mice were injected with 25 μg of LPS. Beginning with the time of LPS administration and followed for the next 11 consecutive days, mice were orally gavaged thrice daily with either 3′SL (20 mg in saline) or saline alone as control. With the tester blinded to the study groups, arthritis in each limb was determined once per day. […] By adding together, the scores of all four limbs, the maximum score per mouse is 28. In addition, a caliper was placed across the ankle joint at the widest point to measure ankle thickness in both hind limbs daily. 14 days after antibody cocktail administration, mice were euthanized and hind paws collected and processed for histology. H&E—as well as Toluidine blue-stained sections were scored from 0 to 4 for inflammation, bone erosion and cartilage depletion based on a previously validated scoring system.

Setting [6] is: RAW 264.7 cells, LPS 10 ng/mL, 6 hours, compared to LPS alone.
[7] abbreviates: 20 mg in saline, oral gavage thrice daily from LPS administration, vs saline.
Setting [8] is: hind paws, day 14, scored 0 to 4, 20 mg oral gavage thrice daily.

This is an account of results in US20230181609A1, “IMMUNOMODULATORY OLIGOSACCHARIDES” (The Regents of the University of California, priority 2017, published 2023).

Molecules are shown by their SMILES.

As to `CC(=O)N[C@H]1[C@H](O[C@H]2[C@@H](O)[C@@H](CO)O[C@@H](O[C@H]3[C@H](O)[C@@H](O)C(O)O[C@@H]3CO)[C@@H]2O)O[C@H](CO)[C@@H](O[C@@H]2O[C@H](CO)[C@H](O)[C@H](O)[C@H]2O)[C@@H]1O` (mixture of isomers) [LNnT, lacto-N-(neo)tetraose], in data set [1], the “digestion in the stomach and absorption” value is “remain undigested in the stomach and are absorbed intact in the lower gastrointestinal tract”; the tolerability entry was “well tolerated”.
Take `CC(=O)N[C@H]1[C@H]([C@H](O)[C@H](O)CO)O[C@@](O[C@H]2[C@@H](O)[C@@H](CO)O[C@@H](O[C@H]3[C@H](O)[C@@H](O)C(O)O[C@@H]3CO)[C@@H]2O)(C(=O)O)C[C@@H]1O` (stereo partly shown) [3′SL, 3′-sialyllactose]: the “IC50 for reducing IL-6 and IL-1β mRNA expression (dose-range finding studies)” value in data set [2] (LPS-stimulated macrophages) is “around 15 μg/mL”. Besides, in data set [2] (setting [6]), the “IL-1β mRNA level” value is “most effective” and the “IL-6 mRNA level” value is reported as “most effective”. For the same molecule, the pro-inflammatory cytokine expression entry in data set [3] was “reduced”. The pro-inflammatory cytokine expression result in data set [4] is “reduced”. In data set [5] (setting [7]), the “Baseline-corrected ankle thickness (paw swelling)” value is “significantly reduced” and the “clinical index score 28” value is recorded as “significantly reduced”. In addition, the adverse effects result in data set [5] (14-day study period, 20 mg oral gavage thrice daily) is “No adverse effects”. For the same molecule, in data set [5] (setting [8]), the “histology score for cartilage damage” value is on record as “significantly lower”, the “histology score for erosion” value is given as “significantly lower” and the “histology score for inflammation” value was “significantly lower”.
